The values that follow are results of earlier work, collected in US20060234348A1, “Method of production of RNA polymerase protein” (priority 2005, published 2006).

This series concerns the target T1, RNase A (Bos taurus, UniProt P61823).
T1 sequence (P61823 27-150): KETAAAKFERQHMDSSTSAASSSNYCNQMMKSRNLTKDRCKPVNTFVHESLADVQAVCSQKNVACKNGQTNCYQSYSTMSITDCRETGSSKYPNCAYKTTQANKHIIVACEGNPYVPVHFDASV
To be noted: RNase A 10 μg/ml, 4 mM DTT, 4° C. for 20 minutes.

For the compound `O[C@H](CS)[C@H](O)CS` (racemic) [DTT, dithiothreitol], the “conversion of polyribosomes to monoribosomes by RNase A” value is reported as “reduced the conversion of polyribosomes to monoribosomes”.
